Molecules are shown by their SMILES. pEC50: −log10 of the molar value. Where a SMILES comes first, the peptide text is derived from it. [ ]: non-standard residue; d: D form. Aib = CC(C)(N)C(=O)O Some results are limits rather than exact numbers.

The source of these data is patent publication US20240239861A1, “GLUCAGON-RECEPTOR SELECTIVE POLYPEPTIDES AND METHODS OF USE THEREOF” (i2O Therapeutics, Inc., priority 2016, published 2024).

Data set [1] can be described thus: in vivo. Particulars: male, rat.
Protocol: Peptides were formulated in sterile saline and administered as a 3-hour intravenous infusion to non-fasted male Wistar Han or Sprague-Dawley rats (n=3 per group) via jugular vein cannula at a final dose of 0.3 or 0.1 mg/kg. […] Plasma was prepared by centrifugation and stored at −80° C. until analysis.
Protein Precipitation: All 96-well plates were coated with a blocking agent to mitigate non-specific binding of peptides. Plasma samples (75 uL) were added to a 96-well plate containing 200 uL of 2:1 ethanol:acetonitrile containing 0.1% TFA and mixed well via aspiration. Plates were capped, vortex-mixed and centrifuged. Supernatants (215 uL) were transferred to a clean 96-well plate, evaporated to dryness under nitrogen flow and then reconstituted in 75 μL of 20% acetonitrile in water containing 0.10% formic acid.
Solid-Phase Extraction: Samples were diluted 3-fold with 5% NH4OH (aq) and loaded onto an Oasis MAX microElution plate (Waters Corp, Milford, MA) that had been pre-conditioned with 200 uL each of methanol and 5% NH4OH (aq). The plate was washed with 200 uL 5% NH4OH (aq), followed by 200 uL 20% acetonitrile in water. […] Samples were reconstituted in 80 uL 0.1% formic acid in water.
All calibration standards were prepared in control rat plasma containing K2EDTA and protease inhibitor cocktail. […] Samples were injected onto a 2.1×50 mm reverse phase C18 analytical column, typically a Waters ACQUITY UPLC™ HSS T3, 1.8 μm (Waters Corporation, Milford, MA) or similar. […] Typical flow rates were 600 L/min. The column temperature was held constant at 40 or 45° C. Peptides were quantified my monitoring one or more product ions produced from a multiply charged parent ion.
Data set [2] deals with human GLP-1R (Homo sapiens, UniProt P43220). Put plainly: Peptide-receptor mediated cAMP accumulation (LANCE Ultra cAMP) in CHO-K1 cells transfected with human GLP-1R. Particulars: hGLP1 pEC50 (cAMP mean (n = 3): 11 point curve starting at 1 nM, Table 3). The format is cell-based. A general note: Cyclic AMP is a second messenger, typically raised through Gs and lowered through Gi signalling.
Sequence of human GLP-1R (P43220 24-463): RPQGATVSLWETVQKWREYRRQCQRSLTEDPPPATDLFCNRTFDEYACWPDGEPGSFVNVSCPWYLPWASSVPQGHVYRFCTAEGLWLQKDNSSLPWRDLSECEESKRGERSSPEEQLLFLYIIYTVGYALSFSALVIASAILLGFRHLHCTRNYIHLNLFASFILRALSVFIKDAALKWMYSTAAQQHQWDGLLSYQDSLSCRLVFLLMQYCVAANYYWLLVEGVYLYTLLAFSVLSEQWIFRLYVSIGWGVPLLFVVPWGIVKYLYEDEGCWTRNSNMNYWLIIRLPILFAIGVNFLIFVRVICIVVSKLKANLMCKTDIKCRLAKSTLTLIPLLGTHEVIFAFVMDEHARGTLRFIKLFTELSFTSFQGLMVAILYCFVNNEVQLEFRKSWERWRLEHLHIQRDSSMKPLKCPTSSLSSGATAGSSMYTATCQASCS

As to `CC(C)C[C@H](NC(=O)[C@H](Cc1ccc(O)cc1)NC(=O)[C@H](CCCCN)NC(=O)[C@H](CO)NC(=O)[C@H](Cc1ccc(O)cc1)NC(=O)[C@H](CC(=O)O)NC(=O)[C@H](CO)NC(=O)[C@@H](NC(=O)[C@H](Cc1ccccc1)NC(=O)[C@@H](NC(=O)CNC(=O)[C@H](Cc1c[nH]cn1)NC(=O)[C@H](CO)NC(=O)[C@@H](N)Cc1ccc(O)cc1)[C@@H](C)O)[C@@H](C)O)C(=O)N[C@@H](CC(=O)O)C(=O)NC(C)(C)C(=O)N[C@@H](CCCCN)C(=O)N[C@@H](CCCNC(=N)N)C(=O)N[C@@H](C)C(=O)N[C@@H](CCC(N)=O)C(=O)N[C@@H](CCC(=O)O)C(=O)N[C@@H](Cc1ccccc1)C(=O)N[C@H](C(=O)NC(C)(C)C(=O)N[C@@H](Cc1c[nH]c2ccccc12)C(=O)N[C@@H](CC(C)C)C(=O)N[C@@H](CCC(=O)O)C(=O)N[C@@H](CC(=O)O)C(=O)N[C@@H](CCC(=O)O)C(=O)N1CCC[C@H]1C(=O)N[C@@H](CO)C(=O)N[C@@H](CO)C(=O)NCC(=O)N[C@@H](C)C(=O)N1CCC[C@H]1C(=O)N1CCC[C@H]1C(=O)N1CCC[C@H]1C(=O)N[C@@H](CO)C(N)=O)C(C)C` [Compound A8] (H-YSHGTFTSDYSKYLD[Aib]KRAQEFV[Aib]WLEDEPSSGAPPPS-NH2; N-terminus assumed), the clearance (usually a measure of how efficiently the substance is removed, as volume per time) in data set [1] was 17 mL/min/kg. In addition, the negative-log EC50 (pEC50) (usually the EC50 on a negative log10 scale, so that one unit is a factor of ten) in data set [2] was below 9.00.

`CC(C)C[C@H](NC(=O)[C@H](Cc1ccc(O)cc1)NC(=O)[C@H](CCCCN)NC(=O)[C@H](CO)NC(=O)[C@H](Cc1ccc(O)cc1)NC(=O)[C@H](CC(=O)O)NC(=O)[C@H](CO)NC(=O)[C@@H](NC(=O)[C@H](Cc1ccccc1)NC(=O)[C@@H](NC(=O)CNC(=O)[C@H](Cc1c[nH]cn1)NC(=O)[C@H](CO)NC(=O)[C@@H](N)Cc1ccc(O)cc1)[C@@H](C)O)[C@@H](C)O)C(=O)N[C@@H](CC(=O)O)C(=O)NC(C)(C)C(=O)N[C@@H](CCCCN)C(=O)N[C@@H](CCCNC(=N)N)C(=O)N[C@@H](C)C(=O)N[C@@H](CCC(N)=O)C(=O)N[C@@H](CCC(=O)O)C(=O)N[C@@H](Cc1ccccc1)C(=O)N[C@H](C(=O)NC(C)(C)C(=O)N[C@@H](Cc1c[nH]c2ccccc12)C(=O)N[C@@H](CC(C)C)C(=O)N[C@@H](CCC(=O)O)C(=O)N[C@@H](CC(=O)O)C(=O)N[C@@H](CCC(=O)O)C(=O)N1CCC[C@H]1C(=O)N[C@@H](CO)C(=O)N[C@@H](CO)C(=O)NCC(=O)N[C@@H](CCCCN)C(=O)N1CCC[C@H]1C(=O)N1CCC[C@H]1C(=O)N1CCC[C@H]1C(=O)N[C@@H](CO)C(=O)O)C(C)C` [Compound A20] (H-YSHGTFTSDYSKYLD[Aib]KRAQEFV[Aib]WLEDEPSSGKPPPS-OH; N-terminus assumed): the clearance in data set [1] was 15 mL/min/kg. Also, in data set [2], the pEC50 is below 9.00.

Regarding `CC(C)C[C@H](NC(=O)[C@H](Cc1ccc(O)cc1)NC(=O)[C@H](CCCCN)NC(=O)[C@H](CO)NC(=O)[C@H](Cc1ccc(O)cc1)NC(=O)[C@H](CC(=O)O)NC(=O)[C@H](CO)NC(=O)[C@@H](NC(=O)[C@H](Cc1ccccc1)NC(=O)[C@@H](NC(=O)CNC(=O)[C@H](Cc1c[nH]cn1)NC(=O)[C@H](CO)NC(=O)[C@@H](N)Cc1ccc(O)cc1)[C@@H](C)O)[C@@H](C)O)C(=O)N[C@@H](CC(=O)O)C(=O)NC(C)(C)C(=O)N[C@@H](CCCCN)C(=O)N[C@@H](CCCNC(=N)N)C(=O)N[C@@H](C)C(=O)N[C@@H](CCC(N)=O)C(=O)N[C@@H](CCC(=O)O)C(=O)N[C@@H](Cc1ccccc1)C(=O)N[C@H](C(=O)NC(C)(C)C(=O)N[C@@H](Cc1c[nH]c2ccccc12)C(=O)N[C@@H](CC(C)C)C(=O)N[C@@H](CCC(=O)O)C(=O)N[C@@H](CC(=O)O)C(=O)N[C@@H](CCC(=O)O)C(=O)NCC(=O)N1CCC[C@H]1C(=O)N[C@@H](CO)C(=O)N[C@@H](CO)C(=O)NCC(=O)N[C@@H](C)C(=O)N1CCC[C@H]1C(=O)N1CCC[C@H]1C(=O)N1CCC[C@H]1C(=O)N[C@@H](CO)C(=O)O)C(C)C` [Compound A28] (H-YSHGTFTSDYSKYLD[Aib]KRAQEFV[Aib]WLEDEGPSSGAPPPS-OH), in data set [1], the clearance worked out at 34.7 mL/min/kg. This compound gave a negative-log EC50 (pEC50) in data set [2] below 9.00.

Consider `CC(C)C[C@H](NC(=O)[C@H](Cc1c[nH]c2ccccc12)NC(=O)[C@H](CCCCN)NC(=O)[C@H](CO)NC(=O)[C@H](Cc1ccc(O)cc1)NC(=O)[C@H](CC(=O)O)NC(=O)[C@H](CO)NC(=O)[C@@H](NC(=O)[C@H](Cc1ccccc1)NC(=O)[C@@H](NC(=O)CNC(=O)[C@H](Cc1c[nH]cn1)NC(=O)[C@@H](NC(=O)[C@@H](N)Cc1ccc(O)cc1)[C@@H](C)O)[C@@H](C)O)[C@@H](C)O)C(=O)N[C@@H](CC(=O)O)C(=O)NC(C)(C)C(=O)N[C@@H](C)C(=O)N[C@@H](CCCNC(=N)N)C(=O)N[C@@H](C)C(=O)N[C@@H](CCC(N)=O)C(=O)N[C@@H](CCC(=O)O)C(=O)N[C@@H](Cc1ccccc1)C(=O)N[C@H](C(=O)NC(C)(C)C(=O)N[C@@H](Cc1c[nH]c2ccccc12)C(=O)N[C@@H](CC(C)C)C(=O)N[C@@H](CCC(=O)O)C(=O)N[C@@H](CC(=O)O)C(=O)N[C@@H](CCC(=O)O)C(=O)N1CCC[C@H]1C(=O)N[C@@H](CO)C(=O)N[C@@H](CO)C(=O)NCC(=O)N[C@@H](C)C(=O)N1CCC[C@H]1C(=O)N1CCC[C@H]1C(=O)N1CCC[C@H]1C(=O)N[C@@H](CO)C(=O)O)C(C)C` [Compound A35] (H-YTHGTFTSDYSKWLD[Aib]ARAQEFV[Aib]WLEDEPSSGAPPPS-OH; N-terminus assumed), for which, in data set [1], the clearance is 30.1 mL/min/kg. Besides, the pEC50 in data set [2] is below 9.00.

With `CC(C)C[C@H](NC(=O)[C@H](Cc1ccc(O)cc1)NC(=O)[C@H](CCCCN)NC(=O)[C@H](CO)NC(=O)[C@H](Cc1ccc(O)cc1)NC(=O)[C@H](CC(=O)O)NC(=O)[C@H](CO)NC(=O)[C@@H](NC(=O)[C@H](Cc1ccccc1)NC(=O)[C@@H](NC(=O)CNC(=O)[C@H](Cc1c[nH]cn1)NC(=O)[C@H](CO)NC(=O)[C@@H](N)Cc1ccc(O)cc1)[C@@H](C)O)[C@@H](C)O)C(=O)N[C@@H](CC(=O)O)C(=O)NC(C)(C)C(=O)N[C@@H](CCCCN)C(=O)N[C@@H](CCCNC(=N)N)C(=O)N[C@@H](C)C(=O)N[C@@H](CCC(N)=O)C(=O)N[C@@H](CCC(=O)O)C(=O)N[C@@H](Cc1ccccc1)C(=O)N[C@H](C(=O)NC(C)(C)C(=O)N[C@@H](Cc1c[nH]c2ccccc12)C(=O)N[C@@H](CC(C)C)C(=O)N[C@@H](CCC(=O)O)C(=O)N[C@@H](CC(=O)O)C(=O)N[C@@H](CCC(=O)O)C(=O)N[C@@H](CCCCN)C(=O)N[C@@H](CCCNC(=N)N)C(=O)N[C@@H](CC(N)=O)C(=O)N[C@@H](CCCCN)C(=O)N[C@@H](CC(N)=O)C(=O)N1CCC[C@H]1C(=O)N1CCC[C@H]1C(=O)N1CCC[C@H]1C(=O)N[C@@H](CO)C(=O)O)C(C)C` [Compound A48] (H-YSHGTFTSDYSKYLD[Aib]KRAQEFV[Aib]WLEDEKRNKNPPPS-OH; N-terminus assumed), in data set [1], the clearance came out at 37 mL/min/kg. The compound also gave a negative logarithm of the EC50 (pEC50) in data set [2] below 9.00.

As to `CC[C@H](C)[C@H](NC(=O)[C@H](CC(=O)O)NC(=O)[C@H](CC(C)C)NC(=O)[C@H](Cc1ccc(O)cc1)NC(=O)[C@H](CCCCN)NC(=O)[C@H](CO)NC(=O)[C@H](Cc1ccc(O)cc1)NC(=O)[C@H](CC(=O)O)NC(=O)[C@H](CO)NC(=O)[C@@H](NC(=O)[C@H](Cc1ccccc1)NC(=O)[C@@H](NC(=O)CNC(=O)[C@H](Cc1c[nH]cn1)NC(=O)[C@H](CO)NC(=O)[C@@H](N)Cc1ccc(O)cc1)[C@@H](C)O)[C@@H](C)O)C(=O)N[C@@H](CCCCN)C(=O)N[C@@H](CCCNC(=N)N)C(=O)N[C@@H](C)C(=O)N[C@@H](CCC(N)=O)C(=O)N[C@@H](CCC(=O)O)C(=O)N[C@@H](Cc1ccccc1)C(=O)N[C@H](C(=O)NC(C)(C)C(=O)N[C@@H](Cc1c[nH]c2ccccc12)C(=O)N[C@@H](CC(C)C)C(=O)N[C@@H](CCC(=O)O)C(=O)N[C@@H](CC(=O)O)C(=O)N[C@@H](CCC(=O)O)C(=O)N1CCC[C@H]1C(=O)N[C@@H](CO)C(=O)N[C@@H](CO)C(=O)NCC(=O)N[C@@H](C)C(=O)N1CCC[C@H]1C(=O)N1CCC[C@H]1C(=O)N1CCC[C@H]1C(=O)N[C@@H](CO)C(=O)O)C(C)C` [Compound A52] (H-YSHGTFTSDYSKYLDIKRAQEFV[Aib]WLEDEPSSGAPPPS-OH), the clearance in data set [1] stood at 29 mL/min/kg. This compound gave a pEC50 in data set [2] below 9.00.

The compound `CC(C)C[C@H](NC(=O)[C@H](Cc1ccc(O)cc1)NC(=O)[C@H](CCCCN)NC(=O)[C@H](CO)NC(=O)[C@H](Cc1ccc(O)cc1)NC(=O)[C@H](CC(=O)O)NC(=O)[C@H](CO)NC(=O)[C@@H](NC(=O)[C@H](Cc1ccccc1)NC(=O)[C@@H](NC(=O)CNC(=O)[C@H](Cc1c[nH]cn1)NC(=O)[C@H](CO)NC(=O)[C@@H](N)Cc1ccc(O)cc1)[C@@H](C)O)[C@@H](C)O)C(=O)N[C@@H](CC(=O)O)C(=O)NC(C)(C)C(=O)N[C@@H](CCCCN)C(=O)N[C@@H](CCCNC(=N)N)C(=O)N[C@@H](C)C(=O)N[C@@H](CCC(N)=O)C(=O)N[C@@H](CCC(=O)O)C(=O)N[C@@H](Cc1ccccc1)C(=O)N[C@H](C(=O)NC(C)(C)C(=O)N[C@@H](Cc1c[nH]c2ccccc12)C(=O)N[C@@H](CC(C)C)C(=O)N[C@@H](CCC(=O)O)C(=O)N[C@@H](CC(=O)O)C(=O)N[C@@H](CCC(=O)O)C(=O)N1CCC[C@H]1C(=O)N[C@@H](CO)C(=O)N[C@@H](CO)C(=O)N[C@@H](CCCCN)C(=O)N[C@@H](CCC(=O)O)C(=O)N1CCC[C@H]1C(=O)N1CCC[C@H]1C(=O)N1CCC[C@H]1C(=O)N[C@@H](CO)C(=O)O)C(C)C` [Compound A54] (H-YSHGTFTSDYSKYLD[Aib]KRAQEFV[Aib]WLEDEPSSKEPPPS-OH; N-terminus assumed) had a clearance in data set [1] of 24 mL/min/kg. The same compound had a pEC50 in data set [2] below 9.00.
